System: Thyroid cancer
Experiment: MTT assay, tumor cells
Assay type: cell-based, human
Set-up: concentration or dose not given beside the values
Settings: 48 hours, mean ± SD
Experimental: (§1) A variety of human tumor cells were cultured in a 37° C., 5% (volume fraction) CO2 incubator to a density of 90% or more, collected by trypsinization, resuspended in a culture medium and counted under a microscope, and the cells were harvested. The concentration was adjusted to 2.0×10^4 cells/mL, the cell suspension was inoculated into a 96-well plate at 100 μL per well and cultured overnight at 37° C. in a 5% (volume fraction) CO2 incubator. After the cells were completely adhered, the polypeptides of the present invention were added as drug-administered groups, and a culture solution containing no drug was used as a blank control group, and the culture solution was diluted to each predetermined concentration. Each dilution was separately added to a 96-well plate at 100 μL per well and incubated for 48 hours at 37° C. in a 5% (volume fraction) CO2 incubator. 20 μL of 5 mg/mL MTT was added to each well of a 96-well plate and incubation was continued for 4 h. The medium was aspirated and dissolved in 100 μL of DMSO per well. The absorbance was measured with a microplate reader at a detection wavelength of 570 nm and a reference wavelength of 630 nm, and the growth inhibition rate was calculated as follows: tumor growth inhibition rate (%)=(1−absorbance value of the administered group/unadministered group absorbance value)×100%, and the experiment was repeated 3 times independently. The results obtained from the test were expressed as mean±standard deviation, and the tumor growth inhibition rate of the unadministered group was 0. The results in Table 7 indicate that the polypeptides of the present invention have a significant inhibitory effect on the growth of various tumors (FIG. 6).

Row | Substance | tumor growth inhibition rate, MTT Assay [%]
1 | Arg-Gly-Asp-Gly-Gly-Gly-Gly-Pro-(D-Pyr)-(D-Cys)-Bip-Arg-Gly-Glu-Gly-Gly-Gly-Gly-Ile-Val-Arg-Arg-Ala-Asp-Arg-Ala-Ala-Val-Pro [Polypeptide III] | 70.99 ± 15.57

System: Head and neck cancer
Experiment: MTT assay, tumor cells
Assay type: cell-based, human
Set-up: concentration or dose not given beside the values
Settings: 48 hours, mean ± SD
Experimental: as §1

Row | Substance | tumor growth inhibition rate, MTT Assay [%]
2 | Arg-Gly-Asp-Gly-Gly-Gly-Gly-Pro-(D-Pyr)-(D-Cys)-Bip-Arg-Gly-Glu-Gly-Gly-Gly-Gly-Ile-Val-Arg-Arg-Ala-Asp-Arg-Ala-Ala-Val-Pro [Polypeptide III] | 55.05 ± 12.07

System: Breast cancer
Experiment: MTT assay, tumor cells
Assay type: cell-based, human
Set-up: concentration or dose not given beside the values
Settings: 48 hours, mean ± SD
Experimental: as §1

Row | Substance | tumor growth inhibition rate, MTT Assay [%]
3 | Arg-Gly-Asp-Gly-Gly-Gly-Gly-Pro-(D-Pyr)-(D-Cys)-Bip-Arg-Gly-Glu-Gly-Gly-Gly-Gly-Ile-Val-Arg-Arg-Ala-Asp-Arg-Ala-Ala-Val-Pro [Polypeptide III] | 90.11 ± 22.76

System: Esophageal cancer
Experiment: MTT assay, tumor cells
Assay type: cell-based, human
Set-up: concentration or dose not given beside the values
Settings: 48 hours, mean ± SD
Experimental: as §1

Row | Substance | tumor growth inhibition rate, MTT Assay [%]
4 | Arg-Gly-Asp-Gly-Gly-Gly-Gly-Pro-(D-Pyr)-(D-Cys)-Bip-Arg-Gly-Glu-Gly-Gly-Gly-Gly-Ile-Val-Arg-Arg-Ala-Asp-Arg-Ala-Ala-Val-Pro [Polypeptide III] | 74.58 ± 16.36

System: sarcoma
Experiment: MTT assay, tumor cells
Assay type: cell-based, human
Set-up: concentration or dose not given beside the values
Settings: 48 hours, mean ± SD
Experimental: as §1

Row | Substance | tumor growth inhibition rate, MTT Assay [%]
5 | Arg-Gly-Asp-Gly-Gly-Gly-Gly-Pro-(D-Pyr)-(D-Cys)-Bip-Arg-Gly-Glu-Gly-Gly-Gly-Gly-Ile-Val-Arg-Arg-Ala-Asp-Arg-Ala-Ala-Val-Pro [Polypeptide III] | 74.75 ± 16.39

System: Ovarian cancer
Experiment: MTT assay, tumor cells
Assay type: cell-based, human
Set-up: concentration or dose not given beside the values
Settings: 48 hours, mean ± SD
Experimental: as §1

Row | Substance | tumor growth inhibition rate, MTT Assay [%]
6 | Arg-Gly-Asp-Gly-Gly-Gly-Gly-Pro-(D-Pyr)-(D-Cys)-Bip-Arg-Gly-Glu-Gly-Gly-Gly-Gly-Ile-Val-Arg-Arg-Ala-Asp-Arg-Ala-Ala-Val-Pro [Polypeptide III] | 75.87 ± 22.58

System: Cervical cancer
Experiment: MTT assay, tumor cells
Assay type: cell-based, human
Set-up: concentration or dose not given beside the values
Settings: 48 hours, mean ± SD
Experimental: as §1

Row | Substance | tumor growth inhibition rate, MTT Assay [%]
7 | Arg-Gly-Asp-Gly-Gly-Gly-Gly-Pro-(D-Pyr)-(D-Cys)-Bip-Arg-Gly-Glu-Gly-Gly-Gly-Gly-Ile-Val-Arg-Arg-Ala-Asp-Arg-Ala-Ala-Val-Pro [Polypeptide III] | 68.52 ± 26.72

System: Colorectal cancer
Experiment: MTT assay, tumor cells
Assay type: cell-based, human
Set-up: concentration or dose not given beside the values
Settings: 48 hours, mean ± SD
Experimental: as §1

Row | Substance | tumor growth inhibition rate, MTT Assay [%]
8 | Arg-Gly-Asp-Gly-Gly-Gly-Gly-Pro-(D-Pyr)-(D-Cys)-Bip-Arg-Gly-Glu-Gly-Gly-Gly-Gly-Ile-Val-Arg-Arg-Ala-Asp-Arg-Ala-Ala-Val-Pro [Polypeptide III] | 96.60 ± 21.18

System: Hemangioma
Experiment: MTT assay, tumor cells
Assay type: cell-based, human
Set-up: concentration or dose not given beside the values
Settings: 48 hours, mean ± SD
Experimental: as §1

Row | Substance | tumor growth inhibition rate, MTT Assay [%]
9 | Arg-Gly-Asp-Gly-Gly-Gly-Gly-Pro-(D-Pyr)-(D-Cys)-Bip-Arg-Gly-Glu-Gly-Gly-Gly-Gly-Ile-Val-Arg-Arg-Ala-Asp-Arg-Ala-Ala-Val-Pro [Polypeptide III] | 85.21 ± 25.36

System: Gastric cancer
Experiment: MTT assay, tumor cells
Assay type: cell-based, human
Set-up: concentration or dose not given beside the values
Settings: 48 hours, mean ± SD
Experimental: as §1

Row | Substance | tumor growth inhibition rate, MTT Assay [%]
10 | Arg-Gly-Asp-Gly-Gly-Gly-Gly-Pro-(D-Pyr)-(D-Cys)-Bip-Arg-Gly-Glu-Gly-Gly-Gly-Gly-Ile-Val-Arg-Arg-Ala-Asp-Arg-Ala-Ala-Val-Pro [Polypeptide III] | 73.58 ± 20.14

System: Staphylococcal fluid
Experiment: Mouse pneumonia model, bacterial
Assay type: in vivo, BALB/C mice
Set-up: concentration or dose not given beside the values
Settings: mean ± SD
Experimental: (§2) The mouse pneumonia model was successfully established by the nose-drop method. To build the mouse pneumonia model, BALB/C mice with a body mass of 16-22 g were selected and anesthetized pneumonia chain was prepared after anesthesia with ether on day 0, day 1, and day 2. Staphylococcal fluid, adenovirus concentrate, Mycoplasma pneumoniae, Chlamydia pneumoniae, protozoa, and pneumonia fungi were slowly dripped into the nasal cavity of the mice, so that they enter the tracheobronchial. During the operation process, care was exercised to prevent bacterial fluid from flowing into the esophagus, which leads to inactivation the bacterial fluid. After successful model establishment, the polypeptides of the present invention were administered, and the results were shown in Table 5. […] The results were expressed in average value±standard deviation.

Row | Substance | Inhibitory Effects on Various Pulmonary Infections [%]
11 | Arg-Gly-Asp-Gly-Gly-Gly-Gly-Pro-(D-Pyr)-(D-Cys)-Bip-Arg-Gly-Glu-Gly-Gly-Gly-Gly-Ile-Val-Arg-Arg-Ala-Asp-Arg-Ala-Ala-Val-Pro [Polypeptide III] | 47.07 ± 13.26

System: Mycoplasma pneumoniae
Experiment: Mouse pneumonia model, mycoplasma
Assay type: in vivo, BALB/C mice
Set-up: concentration or dose not given beside the values
Settings: mean ± SD
Experimental: as §2

Row | Substance | Inhibitory Effects on Various Pulmonary Infections [%]
12 | Arg-Gly-Asp-Gly-Gly-Gly-Gly-Pro-(D-Pyr)-(D-Cys)-Bip-Arg-Gly-Glu-Gly-Gly-Gly-Gly-Ile-Val-Arg-Arg-Ala-Asp-Arg-Ala-Ala-Val-Pro [Polypeptide III] | 42.44 ± 11.96

System: protozoa
Experiment: Mouse pneumonia model, protozoal
Assay type: in vivo, BALB/C mice
Set-up: concentration or dose not given beside the values
Settings: mean ± SD
Experimental: as §2

Row | Substance | Inhibitory Effects on Various Pulmonary Infections [%]
13 | Arg-Gly-Asp-Gly-Gly-Gly-Gly-Pro-(D-Pyr)-(D-Cys)-Bip-Arg-Gly-Glu-Gly-Gly-Gly-Gly-Ile-Val-Arg-Arg-Ala-Asp-Arg-Ala-Ala-Val-Pro [Polypeptide III] | 65.68 ± 18.50
